Measurements: patent US4593090A, “Novel nitrosourea compounds, method for preparing same, and pharmaceutical composition containing same” (Gogo Kimura, priority 1981, dated 1986)

How the values were obtained:
[1] = system: Leukemia L1210; test: Activity against Leukemia L1210, oral, increase in life span of mice; assay type: in vivo, female mice (BDF1 family); conditions: for ED (maximum ILS) / ED30: Mus musculus, L1210; for ED (maximum ILS): read-out: O.D. (optimum dosage); for ED30: read-out: ILS30; for Survivors after 60 days / Max. ILS % / Therapeutic ratio TR: oral; for Survivors after 60 days: 6-membered group; for Max. ILS %: 60-day observation, versus control; for Therapeutic ratio TR: O.D./ILS30
Method: Tests were conducted in accordance with the method for measuring antitumor activity of National Cancer Center Tokyo (A, Hoshi et al, Farumashia 9 464 (1973)). Test compounds were each intraperitoneally (referred to as ip) or orally (referred to as op) administered once a day for 5 successive days to a 6-membered group of femal mice (BDF1 family, each weighing 20 to 23 g) 24 hours after 1×10^5 cells of Leukemia L1210 have been implantated into the abdominal cavities of the mice, and the effect was evaluated by comparing the survival days of treated groups with those of an untreated group of mice (control group) in 60-day observation. An increase percentage of life span (ILS%) was calculated from said average survival days compared with those of the control group. Further, therapeutic ratio (O.D./ILD30, referred to as T.R.) of each tested compound was calculated from the daily dosage of the compound necessary to increase said average survival days by 30% as compared with the control group (this dosage is referred to as ILS 30) and the daily dosage giving a maximum increase of life span to mice implantated with L1210 cells, namely an optimum dosage (referred to as O.D.). The results of five successive days intraperitoneal administrations of test compounds were shown in Tables I to III, and those of five successive oral administrations in Table IV.

[2] = system: Leukemia L1210; test: Activity against Leukemia L1210, intraperitoneal, increase in life span of mice; assay type: in vivo, female mice (BDF1 family); conditions: for ED (maximum ILS) / ED30: Mus musculus, L1210, ip; for ED (maximum ILS): read-out: O.D. (optimum dosage); for ED30: read-out: ILS30; for Survivors after 60 days / Max. ILS % / Therapeutic ratio TR: ip; for Survivors after 60 days: 6-membered group; for Max. ILS %: 60-day observation, versus control; for Therapeutic ratio TR: O.D./ILS30
Procedure, shortened: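 Dosing started 24 h after ip implantation of 1×10^5 L1210 cells into groups of 6 female BDF1 mice, by ip or oral route daily for 5 consecutive days. Survival was followed for 60 days; increase in life span was scored against untreated mice, with therapeutic ratio from optimum dose over ILS30 dose.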

[3] = Acute toxicity (LD50, Behrens-Karber method); assay type: in vivo, ICR mice; conditions: ip, mortality during 30 days; for LD50 at 720 h: mouse, in vivo
Method: Test compounds, dissolved or suspended in 0.5% aqueous CMC, were each intraperitoneally administered to ICR mice in a dose of 0.1 ml per 10 g body weight. LD50 (mg/kg) value of each test compound was calculated from the mortality of mice during 30 days by the Behrens-Karber method.

[4] = oral once a day for 5 successive days, daily dosage giving maximum increase of life span
[5] = oral once a day for 5 successive days, daily dosage increasing average survival days by 30%
[6] = ip once a day for 5 successive days, daily dosage giving maximum increase of life span
[7] = ip once a day for 5 successive days, daily dosage increasing average survival days by 30%

Row | Molecule | ED (maximum ILS) [1, 4] [mg/kg] | ED30 [1, 5] [mg/kg] | Survivors after 60 days [1] | Max. ILS % [1] [%] | Therapeutic ratio TR [1] | ED (maximum ILS) [2, 6] [mg/kg] | ED30 [2, 7] [mg/kg] | Survivors after 60 days [2] | Max. ILS % [2] [%] | Therapeutic ratio TR [2] | LD50 at 720 h [3] [mg/kg] | O.D. (optimum dosage) [1, 4] [mg/kg] | ILS30 [1, 5] [mg/kg] | O.D. (optimum dosage) [2, 6] [mg/kg] | ILS30 [2, 7] [mg/kg] | LD50 [3] [mg/kg]
1 | COCCCO[C@H]1O[C@H](CN(CC(C)(C)C)C(=O)N(CCCl)N=O)[C@@H](O)[C@H](O)[C@H]1O [Compound 186, 3-neopentyl-3-(3-methoxy-n-propyl α-D-glucopyranose-6-yl)-1-(2-chloroethyl)-1-nitrosourea] | 200 | 8.55 | 5/6 | > 620 | 23.4 | 160 | 2.49 | 6/6 | > 700 | 64.3 | 520 |  |  |  |  | 
2 | 3-tert-butyl-3-(1-methoxy-2-methoxyethyl α-D-glucopyranose-6-yl)-1-(2-chloroethyl)-1-nitrosourea [Compound 195] |  |  | 5/6 | > 620 | 23.5 |  |  | 6/6 | > 700 | 55.4 |  | 200 | 8.51 | 160 | 2.89 | 540
3 | CCOCCO[C@H]1O[C@H](CO)[C@@H](O)[C@H](O)[C@H]1N(CCC(C)(C)C)C(=O)N(CCCl)N=O [Compound 192, 3-(3,3-dimethyl-n-butyl)-3-(2-ethoxyethyl α-D-glucopyranose-2-yl)-1-(2-chloroethyl)-1-nitrosourea] | 200 | 9.85 | 5/6 | > 625 | 20.3 | 160 | 2.74 | 6/6 | > 700 | 58.4 | 515 |  |  |  |  | 
4 | CCOCCN(C(=O)N(CCCl)N=O)C1C(OC2CCCCC2)OC(CO)C(O)C1O [Compound 64, 3-(2-ethoxyethyl)-3-(cyclohexyl α-D-glucopyranose-2-yl)-1-(2-chloroethyl)-1-nitrosourea] | 240 | 13.2 | 4/6 | > 460 | 18.2 | 200 | 4.76 | 4/6 | > 450 | 42.0 | 650 |  |  |  |  | 
5 | COCCOCCO[C@H]1O[C@H](CN(C(=O)N(CCCl)N=O)C(C)(C)C)[C@@H](O)[C@H](O)[C@H]1O [Compound 197] | 200 | 9.26 | 5/6 | > 625 | 21.6 | 160 | 2.7 | 6/6 | > 700 | 59.2 | 530 |  |  |  |  | 
6 | COCCN(C(=O)N(CCCl)N=O)C1C(O)C(CO)OC(OC2CCCCC2)C1O [Compound 89, 3-(2-methoxyethyl)-3-(cyclohexyl α-D-glucopyranose-3-yl)-1-(2-chloroethyl)-1-nitrosourea] | 210 | 12.5 | 4/6 | > 450 | 16.8 | 170 | 2.66 | 6/6 | > 700 | 63.9 | 690 |  |  |  |  | 
